Reference: ChEMBL document CHEMBL5465560, “Selectivity Literature for EUbOPEN Chemogenomic Library” (2024)

What was measured:
[1] = target: Interleukin-1 receptor-associated kinase 1 (Homo sapiens) (UniProt P51617); assay: Selectivity interaction (KinomeScan (DiscoverX)) EUB0000666a IRAK1; conditions: at 10 µM
Peregrin (Homo sapiens) = target: T1, Peregrin (Homo sapiens) (UniProt P55201); assay: Selectivity interaction (Bromodomain panel (DSF asssay)) EUB0000270b BRPF1
T1 sequence (whole entry): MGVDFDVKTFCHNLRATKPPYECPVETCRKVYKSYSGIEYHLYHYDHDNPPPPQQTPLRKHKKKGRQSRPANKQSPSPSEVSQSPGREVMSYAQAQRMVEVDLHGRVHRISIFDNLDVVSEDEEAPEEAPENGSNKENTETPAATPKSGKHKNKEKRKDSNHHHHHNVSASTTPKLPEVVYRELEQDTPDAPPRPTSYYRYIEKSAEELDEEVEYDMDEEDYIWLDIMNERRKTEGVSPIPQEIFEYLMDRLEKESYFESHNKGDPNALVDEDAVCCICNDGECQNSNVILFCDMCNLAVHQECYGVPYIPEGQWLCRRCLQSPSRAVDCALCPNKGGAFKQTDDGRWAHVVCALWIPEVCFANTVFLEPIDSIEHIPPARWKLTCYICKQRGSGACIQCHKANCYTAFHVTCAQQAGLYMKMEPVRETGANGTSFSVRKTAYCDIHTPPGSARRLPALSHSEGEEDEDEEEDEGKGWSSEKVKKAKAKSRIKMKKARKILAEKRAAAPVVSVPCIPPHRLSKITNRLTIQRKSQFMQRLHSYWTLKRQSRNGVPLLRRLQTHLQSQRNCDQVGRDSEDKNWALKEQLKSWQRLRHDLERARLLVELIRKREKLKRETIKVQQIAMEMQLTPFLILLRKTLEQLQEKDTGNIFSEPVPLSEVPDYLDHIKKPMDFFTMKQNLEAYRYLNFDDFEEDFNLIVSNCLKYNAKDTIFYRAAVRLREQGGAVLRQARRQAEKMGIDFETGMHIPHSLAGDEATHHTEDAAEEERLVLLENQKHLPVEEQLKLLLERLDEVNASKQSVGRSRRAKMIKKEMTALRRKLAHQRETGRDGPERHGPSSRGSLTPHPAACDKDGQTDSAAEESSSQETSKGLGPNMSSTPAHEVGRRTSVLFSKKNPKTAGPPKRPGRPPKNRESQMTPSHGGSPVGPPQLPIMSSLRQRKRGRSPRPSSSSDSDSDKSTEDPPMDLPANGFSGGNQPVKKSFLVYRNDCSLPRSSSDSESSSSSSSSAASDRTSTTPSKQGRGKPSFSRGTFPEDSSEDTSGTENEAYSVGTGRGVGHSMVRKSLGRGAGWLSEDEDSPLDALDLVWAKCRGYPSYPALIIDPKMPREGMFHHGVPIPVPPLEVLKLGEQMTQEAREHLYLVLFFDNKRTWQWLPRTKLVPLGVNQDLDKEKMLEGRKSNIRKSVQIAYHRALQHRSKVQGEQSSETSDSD

[2] = target: T2, Myosin-IIIb (Homo sapiens) (UniProt Q8WXR4); assay: Selectivity interaction (KinomeScan (DiscoverX)) EUB0001049a MYO3B; conditions: at 1 µM
T2 sequence (whole entry): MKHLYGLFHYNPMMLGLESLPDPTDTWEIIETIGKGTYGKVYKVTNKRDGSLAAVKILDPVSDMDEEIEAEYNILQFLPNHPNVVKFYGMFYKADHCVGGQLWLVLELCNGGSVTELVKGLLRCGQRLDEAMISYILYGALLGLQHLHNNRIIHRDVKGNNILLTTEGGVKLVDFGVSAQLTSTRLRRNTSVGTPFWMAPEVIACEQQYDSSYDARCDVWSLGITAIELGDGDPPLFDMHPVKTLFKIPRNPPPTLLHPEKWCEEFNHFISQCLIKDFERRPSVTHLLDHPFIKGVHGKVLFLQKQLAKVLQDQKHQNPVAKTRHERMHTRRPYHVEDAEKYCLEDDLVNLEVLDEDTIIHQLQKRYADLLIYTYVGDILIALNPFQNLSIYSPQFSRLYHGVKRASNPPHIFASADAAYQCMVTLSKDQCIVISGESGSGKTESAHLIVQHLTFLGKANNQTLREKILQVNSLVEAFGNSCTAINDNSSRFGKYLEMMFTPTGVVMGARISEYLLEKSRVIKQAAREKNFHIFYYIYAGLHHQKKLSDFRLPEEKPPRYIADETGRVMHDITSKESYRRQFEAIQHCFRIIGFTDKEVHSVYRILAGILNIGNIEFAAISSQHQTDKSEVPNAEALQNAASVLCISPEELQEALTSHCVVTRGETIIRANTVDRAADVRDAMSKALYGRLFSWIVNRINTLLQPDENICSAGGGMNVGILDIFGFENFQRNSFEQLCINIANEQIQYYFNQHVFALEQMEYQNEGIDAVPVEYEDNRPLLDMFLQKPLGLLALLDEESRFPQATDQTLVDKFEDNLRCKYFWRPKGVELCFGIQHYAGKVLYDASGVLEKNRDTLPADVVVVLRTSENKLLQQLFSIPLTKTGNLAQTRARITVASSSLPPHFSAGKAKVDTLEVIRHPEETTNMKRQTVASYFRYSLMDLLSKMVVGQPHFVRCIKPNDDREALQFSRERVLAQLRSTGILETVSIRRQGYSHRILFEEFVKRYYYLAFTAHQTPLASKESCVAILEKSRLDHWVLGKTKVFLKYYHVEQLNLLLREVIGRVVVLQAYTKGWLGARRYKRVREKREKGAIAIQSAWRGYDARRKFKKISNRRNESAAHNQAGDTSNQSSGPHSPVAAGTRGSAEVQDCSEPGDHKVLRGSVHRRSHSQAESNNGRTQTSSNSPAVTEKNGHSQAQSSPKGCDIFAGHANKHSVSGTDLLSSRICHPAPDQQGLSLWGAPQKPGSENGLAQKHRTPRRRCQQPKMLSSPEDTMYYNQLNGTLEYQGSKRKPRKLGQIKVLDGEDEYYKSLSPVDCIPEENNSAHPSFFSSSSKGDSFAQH

Interleukin-1 receptor-associated kinase 1 (Homo sapiens), sequence (P51617 whole entry, looked up): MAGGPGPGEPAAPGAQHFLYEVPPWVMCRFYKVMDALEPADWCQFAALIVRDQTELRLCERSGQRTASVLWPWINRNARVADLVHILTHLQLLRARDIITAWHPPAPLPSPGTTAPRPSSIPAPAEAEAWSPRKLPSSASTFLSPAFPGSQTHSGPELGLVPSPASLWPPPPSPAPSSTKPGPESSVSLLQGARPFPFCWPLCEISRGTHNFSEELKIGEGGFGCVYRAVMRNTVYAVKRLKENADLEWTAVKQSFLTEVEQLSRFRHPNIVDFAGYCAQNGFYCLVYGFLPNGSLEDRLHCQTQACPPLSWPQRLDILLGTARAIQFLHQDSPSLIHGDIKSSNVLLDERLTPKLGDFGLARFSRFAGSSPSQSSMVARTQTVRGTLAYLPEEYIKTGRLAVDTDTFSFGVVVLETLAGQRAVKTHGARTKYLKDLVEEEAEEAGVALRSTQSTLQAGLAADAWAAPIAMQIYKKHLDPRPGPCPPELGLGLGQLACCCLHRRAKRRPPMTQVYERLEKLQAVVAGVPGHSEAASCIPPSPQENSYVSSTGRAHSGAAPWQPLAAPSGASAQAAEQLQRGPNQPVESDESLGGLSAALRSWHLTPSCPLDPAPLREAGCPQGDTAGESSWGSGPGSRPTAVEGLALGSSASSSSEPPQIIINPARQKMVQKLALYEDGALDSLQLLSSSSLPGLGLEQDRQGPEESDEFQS

## O=C(NOC[C@H](O)CO)c1ccc(F)c(F)c1Nc1ccc(I)cc1F
[1]
  % of control: 100%

## Cc1cc(CN)cc(C)c1-c1ncn(C)c1-c1cncn1C
Peregrin (Homo sapiens)
  dTM: -1.75 K

## COc1cc(Nc2nc(C)cc(-c3cnn4nc(OC)ccc34)n2)cc(C(F)(F)F)c1
[2]
  % of control: 100%
